# Data as given in patent US9751850B2, “TRPA1 antagonists” (AbbVie Inc., priority 2008, dated 2017).
# Molecular target: Human TRPA1 (Homo sapiens (Human), UniProt O75762)
# Assay: FLIPR based intracellular Ca2+ assay and membrane potential assay, AITC-activated TRPA1
# Type: cell-based
# Conditions: hTRPA1 transiently expressed in HEK293-F cells, AITC as agonist
# Method: Molecular biology and transient expression were performed as described in Chen, J. et al., Journal of Biomolecular Screening 2007, 12, 61-69. Briefly, TRPA1 full length cDNA was amplified from human dorsal root ganglia total RNA (BD Bioscience Clontech, Palo Alto, Calif., USA) and was cloned into pcDNA3.1/V5-His Topo vector (Invitrogen, Carlsbad, Calif.). Large scale transient transfection was performed using the FreeStyle™ 293 Expression System as recommended by the manufacturer (Invitrogen). HEK293-F cells were grown in suspension in flasks (cell volume 30 ml, to 1 liter) or in a Wave Bioreactor (Wave Biotech, Somerset, N.J. (6 liters). To support high density, suspension culture and transfection, cells were cultured in Free Style 293 media, an optimized, serum free formulation. 293fectin™ (Invitrogen) was used as transfection reagent. In a transfection of 3×10^7 cells (30 mL volume), 30 μg of plasmid DNA and 40 μL 293 fectin were used. For a larger volume transfection, each reagent was scaled up proportionally. Two days post-transfection, cells were harvested by centrifugation (1000×g, 5 minutes) and resuspended to a density of 1.5×10^7 cells/mL in freezing medium (Freestyle media/10% serum/10% DMSO). Cells were transferred into cryovials in 2 mL aliquots, and these vials were placed in Nalgene Mr. Frosty slow-freeze devices (Sigma-Aldrich, St. Louis, Mo.) at −80° C. As needed, vials were removed from −80° C. and quickly thawed in a 37° C. water bath. Cells were aseptically transferred into conical tubes containing Freestyle media (10 mL/vial). After centrifugation at 1,000×g for 3-5 minutes, medium was removed by aspiration and cells were resuspended in Freestyle medium at desired densities (typically 1×10^6 cells/mL). Re-suspended cells were seeded into black-walled clear-bottom 96-well Biocoat™ poly-D-lysine assay plated (BD Biosciences, Bedford, Mass.) (10^5 cells/well) and incubated overnight at 37° C. under a humidified 5% CO2 atmosphere.
# Ca^2+ influx was measured using a FLIPR calcium assay kit (R8033; Molecular Devices, Sunnyvale, Calif.). The Ca^2+ indicator dye was dissolved in Hanks' balanced salt solution supplemented with 20 mM HEPES buffer (HBSS/HEPES) according to the manufacturer instructions. Prior to start of the assay, the medium was removed by aspiration, and cells were loaded with 100 μL Ca^2+ dye for 2 to 3 hours at room temperature. AITC (allyl isothiocyanate) was used to activate and open the channels. (4×) solutions of the test compounds were prepared in HBSS/HEPES, and 50 μL were added to the cells at a delivery rate of 10 μL/sec. Changes in fluorescene were measured over time in a fluorometric imaging plate reader (FLIPR), Molecular Devices). Two additions were made over the course of an experimental run. For agonist experiments, assay buffer was added at the 10 s time point, followed by addition of agonist at the 3 minute 10 sec time point. For antagonist experiments, the antagonist was added at the 10 sec time point, followed by addition of the agonist 3 minutes later. Final assay volume for both the agonist and antagonist experiments was 200 μL. Total length of an experimental run was 6.5 minutes.
# Data was analyzed with GraphPad Prism® software (GraphPad Software, San Diego, Calif.), using a four-parameter logistic Hill equation to curve-fit concentration-effect data and derive EC50 or IC50 values. Numerical values are reported as mean±SEM (n=number of experiments). SEM is calculated by dividing the standard deviation by the square root of the sample size […].
# Changes in membrane potential were measured in hTRPA1-expressing LSTT cells using a FLIJPR membrane potential assay kit (R8034, Molecular Devices). The procedure for thawing and plating the LSTT cells was identical to the Ca^2+ influx assay (see above). […]
# Chain of Human TRPA1 (O75762 whole entry): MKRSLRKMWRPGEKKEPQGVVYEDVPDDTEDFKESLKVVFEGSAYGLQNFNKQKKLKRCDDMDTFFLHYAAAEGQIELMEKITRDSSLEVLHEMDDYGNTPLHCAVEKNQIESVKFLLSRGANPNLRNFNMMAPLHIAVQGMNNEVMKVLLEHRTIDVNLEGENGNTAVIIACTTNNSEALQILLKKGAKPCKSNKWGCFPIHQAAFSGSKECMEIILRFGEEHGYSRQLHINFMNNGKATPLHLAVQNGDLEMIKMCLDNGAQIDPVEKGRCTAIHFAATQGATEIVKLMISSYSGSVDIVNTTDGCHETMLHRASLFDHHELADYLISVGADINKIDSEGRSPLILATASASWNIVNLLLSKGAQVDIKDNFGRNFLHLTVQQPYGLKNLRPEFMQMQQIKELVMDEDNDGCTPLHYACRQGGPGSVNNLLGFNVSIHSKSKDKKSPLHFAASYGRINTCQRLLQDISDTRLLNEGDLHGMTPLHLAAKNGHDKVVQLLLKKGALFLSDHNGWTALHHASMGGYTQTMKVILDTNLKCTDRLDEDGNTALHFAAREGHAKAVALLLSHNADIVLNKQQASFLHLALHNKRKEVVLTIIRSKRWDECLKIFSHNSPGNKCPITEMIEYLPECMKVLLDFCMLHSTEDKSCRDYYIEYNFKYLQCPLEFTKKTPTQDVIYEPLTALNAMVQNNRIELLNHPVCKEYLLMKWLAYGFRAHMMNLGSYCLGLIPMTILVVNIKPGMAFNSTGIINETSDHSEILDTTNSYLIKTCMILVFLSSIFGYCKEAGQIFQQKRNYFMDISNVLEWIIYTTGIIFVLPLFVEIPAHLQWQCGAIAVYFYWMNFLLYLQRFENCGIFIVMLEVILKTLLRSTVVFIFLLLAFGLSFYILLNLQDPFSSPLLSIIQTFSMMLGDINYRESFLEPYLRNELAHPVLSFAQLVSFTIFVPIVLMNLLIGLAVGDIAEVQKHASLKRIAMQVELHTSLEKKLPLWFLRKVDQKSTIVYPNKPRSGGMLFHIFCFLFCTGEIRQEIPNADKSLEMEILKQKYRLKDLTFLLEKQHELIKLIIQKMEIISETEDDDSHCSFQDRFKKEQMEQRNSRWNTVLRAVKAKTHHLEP
row,Structure (SMILES),IC50 [µM]
1,"CCC(=N\O)/C(C)=C/c1ccc(F)nc1 [Example 1, (1E,3E)-1-(6-fluoropyridin-3-yl)-2-methylpent-1-en-3-one oxime]",1.25
2,"CCC(=N\O)/C(C)=C/c1cccs1 [Example 2, (1E,3E)-2-methyl-1-thien-2-ylpent-1-en-3-one oxime]",11
3,"CCC(=N\O)/C(C)=C/c1ccc(OC)nc1 [Example 3, (1E,3E)-1-(6-methoxypyridin-3-yl)-2-methylpent-1-en-3-one oxime]",23.4
4,"CCC(=N\O)/C(C)=C/c1ccsc1 [Example 4, (1E,3E)-2-methyl-1-thien-3-ylpent-1-en-3-one oxime]",1.32
5,"CCC(=N\O)/C(C)=C/c1cccnc1 [Example 5, (1E,3E)-2-methyl-1-pyridin-3-ylpent-1-en-3-one oxime]",17
6,"CCC(=N\O)/C(C)=C/c1ccncc1 [Example 6, (1E,3E)-2-methyl-1-pyridin-4-ylpent-1-en-3-one oxime]",8.61
7,"CCC(=N\O)/C(C)=C/c1ccc(C)nc1 [Example 7, (1E,3E)-2-methyl-1-(6-methylpyridin-3-yl)pent-1-en-3-one oxime]",> 100
8,"CCC(=N\O)/C(C)=C/c1cnc2ccccc2c1 [Example 8, (1E,3E)-2-methyl-1-quinolin-3-ylpent-1-en-3-one oxime]",> 100
9,"CCC(=N\O)/C(C)=C/c1cnccc1C [Example 9, (1E,3E)-2-methyl-1-(4-methylpyridin-3-yl)pent-1-en-3-one oxime]",> 100
10,"CCC(=N\O)/C(C)=C/c1ccc(C(F)(F)F)nc1 [Example 10, (1E,3E)-2-methyl-1-[6-(trifluoromethyl)pyridin-3-yl]pent-1-en-3-one oxime]",> 100
11,"CCC(=N\O)/C(C)=C/c1cncc2ccccc12 [Example 11, (1E,3E)-1-(isoquinolin-4-yl)-2-methylpent-1-en-3-one oxime]",> 100
